Data taken from US20240148709A1, “METHODS OF TREATING EYE PAIN AND EYE DISORDERS” (Aisa Pharma, Inc., priority 2022, published 2024).

Tested on: participants with SSc-RP
Test: Scleroderma Health Assessment Questionnaire (SHAQ), Phase 2a study Part A
Format: in vivo, human
Details: cilnidipine 10 mg and/or tadalafil 5 mg arms
Description: Part A—double-blind, placebo-controlled, parallel-group, dose selection, will assess the safety and efficacy of two doses of cilnidipine (10 mg and 20 mg), alone and in combination with tadalafil. A total of 36 participants will be randomized to one of six prespecified treatment arms. Refer to FIG. 1 for treatment arms in Part A of the study. Dosing last for 12 (±2) days in which participants will self-administer daily doses of assigned treatment in the morning. Each participant will take one capsule and one tablet to blind the active therapy being received.
The standard, validated, patient reported outcome measures tool for SSc patients, the SHAQ, will be collected at the time points specified in the study schedules (FIG. 2 and FIGS. 3A and 3B) to assess the participant's quality of life. The SHAQ includes a Raynaud's VAS that will also be reported separately.
Results: Patients in the study were administered the Scleroderma Health Assessment Questionnaire (SHAQ) at the time of study entry and during clinic visits following the treatment period. The study is a two-part, parallel arm design, prospective, double-blind, randomized study conducted in Australia (Flinders Medical Center). 27 patients were randomized into the first phase of the study, following which a DSMB meeting was held, which reviewed data on the primary study endpoint and key Raynaud's secondary endpoints. Data on the SHAQ was not available for the DSMB to review. The mITT population, in which any data was available post treatment was 24 patients was the analysis population for this first part of the study. The second part (i.e., part B) of the study will randomize 36 patients in a double blind, randomized, prospective, placebo controlled, crossover study. In the first part (i.e., Part A) of the study for which data is presented, patients were randomized into 6 groups, cilnidipine at two doses (10 and 20 mg) alone and in combination with tadalafil 5 mg, tadalafil 5 mg alone, and placebo. […] The DSMB recommended that the study proceed into its double blind prospective cross overpowered second phase and compare cilnidipine 20 mg alone to placebo.

## CN1CC(=O)N2[C@H](c3ccc4c(c3)OCO4)c3[nH]c4ccccc4c3C[C@@H]2C1=O [Tadalafil, tadalafil]
  SHAQ Finger Ulcers, Change from Baseline, Max: 1.00
  SHAQ Finger Ulcers, Change from Baseline, Mean (SD): 0.250 (0.5000)
  SHAQ Finger Ulcers, Change from Baseline, Median: 0.000
  SHAQ Finger Ulcers, Change from Baseline, Min: 0.00
  SHAQ Finger Ulcers, Change from Baseline, Q1: 0.000
  SHAQ Finger Ulcers, Change from Baseline, Q3: 0.500
  SHAQ Finger Ulcers, In Clinic Visit (Day 12), Max: 9.20
  SHAQ Finger Ulcers, In Clinic Visit (Day 12), Mean (SD): 2.325 (4.5836)
  SHAQ Finger Ulcers, In Clinic Visit (Day 12), Median: 0.050
  SHAQ Finger Ulcers, In Clinic Visit (Day 12), Min: 0.00
  SHAQ Finger Ulcers, In Clinic Visit (Day 12), Q1: 0.000
  SHAQ Finger Ulcers, In Clinic Visit (Day 12), Q3: 4.650
  SHAQ Finger Ulcers, Percent Change from Baseline, Max: 12.2%
  SHAQ Finger Ulcers, Percent Change from Baseline, Mean (SD): 6.10 (8.623) %
  SHAQ Finger Ulcers, Percent Change from Baseline, Median: 6.10%
  SHAQ Finger Ulcers, Percent Change from Baseline, Min: 0.0%
  SHAQ Finger Ulcers, Percent Change from Baseline, Q1: 0.00%
  SHAQ Finger Ulcers, Percent Change from Baseline, Q3: 12.20%
  SHAQ Overall Change in Severity, Change from Baseline, Max: 2.40
  SHAQ Overall Change in Severity, Change from Baseline, Median: 0.700
  SHAQ Overall Change in Severity, Change from Baseline, Min: −1.30
  SHAQ Overall Change in Severity, Change from Baseline, Q1: −0.600
  SHAQ Overall Change in Severity, Change from Baseline, Q3: 1.850
  SHAQ Overall Change in Severity, In Clinic Visit (Day 12), Max: 9.10
  SHAQ Overall Change in Severity, In Clinic Visit (Day 12), Mean (SD): 5.600 (4.2528)
  SHAQ Overall Change in Severity, In Clinic Visit (Day 12), Median: 6.550
  SHAQ Overall Change in Severity, In Clinic Visit (Day 12), Min: 0.20
  SHAQ Overall Change in Severity, In Clinic Visit (Day 12), Q1: 2.200
  SHAQ Overall Change in Severity, In Clinic Visit (Day 12), Q3: 9.000
  SHAQ Overall Change in Severity, Percent Change from Baseline, Max: 100.0%
  SHAQ Overall Change in Severity, Percent Change from Baseline, Mean (SD): 32.49 (51.568) %
  SHAQ Overall Change in Severity, Percent Change from Baseline, Median: 26.790%
  SHAQ Overall Change in Severity, Percent Change from Baseline, Min: −23.6%
  SHAQ Overall Change in Severity, Percent Change from Baseline, Q1: −3.48%
  SHAQ Overall Change in Severity, Percent Change from Baseline, Q3: 68.46%
  SHAQ Standard disability index, Change from Baseline, Max: 0.00
  SHAQ Standard disability index, Change from Baseline, Mean (SD): −0.063 (0.0722)
  SHAQ Standard disability index, Change from Baseline, Median: −0.063
  SHAQ Standard disability index, Change from Baseline, Min: −0.13
  SHAQ Standard disability index, Change from Baseline, Q1: −0.125
  SHAQ Standard disability index, Change from Baseline, Q3: 0.000
  SHAQ Standard disability index, In Clinic Visit (Day 12), Max: 1.00
  SHAQ Standard disability index, In Clinic Visit (Day 12), Mean (SD): 0.531 (0.4130)
  SHAQ Standard disability index, In Clinic Visit (Day 12), Median: 0.563
  SHAQ Standard disability index, In Clinic Visit (Day 12), Min: 0.00
  SHAQ Standard disability index, In Clinic Visit (Day 12), Q1: 0.250
  SHAQ Standard disability index, In Clinic Visit (Day 12), Q3: 0.813
  SHAQ Standard disability index, Percent Change from Baseline, Max: 0.0%
  SHAQ Standard disability index, Percent Change from Baseline, Mean (SD): −9.26 (8.486) %
  SHAQ Standard disability index, Percent Change from Baseline, Median: −11.11%
  SHAQ Standard disability index, Percent Change from Baseline, Min: −16.7%
  SHAQ Standard disability index, Percent Change from Baseline, Q1: −16.67%
  SHAQ Standard disability index, Percent Change from Baseline, Q3: 0.00%
  SHAQ Visual Analog Scale-Breathing Problems, Change from Baseline, Max: 2.80
  SHAQ Visual Analog Scale-Breathing Problems, Change from Baseline, Mean (SD): 0.500 (2.5599)
  SHAQ Visual Analog Scale-Breathing Problems, Change from Baseline, Median: 1.050
  SHAQ Visual Analog Scale-Breathing Problems, Change from Baseline, Min: −2.90
  SHAQ Visual Analog Scale-Breathing Problems, Change from Baseline, Q1: −1.450
  SHAQ Visual Analog Scale-Breathing Problems, Change from Baseline, Q3: 2.450
  SHAQ Visual Analog Scale-Breathing Problems, In Clinic Visit (Day 12), Max: 9.20
  SHAQ Visual Analog Scale-Breathing Problems, In Clinic Visit (Day 12), Mean (SD): 4.300 (4.8840)
  SHAQ Visual Analog Scale-Breathing Problems, In Clinic Visit (Day 12), Median: 4.000
  SHAQ Visual Analog Scale-Breathing Problems, In Clinic Visit (Day 12), Min: 0.00
  SHAQ Visual Analog Scale-Breathing Problems, In Clinic Visit (Day 12), Q1: 0.100
  SHAQ Visual Analog Scale-Breathing Problems, In Clinic Visit (Day 12), Q3: 8.500
  SHAQ Visual Analog Scale-Breathing Problems, Percent Change from Baseline, Max: 56.0%
  SHAQ Visual Analog Scale-Breathing Problems, Percent Change from Baseline, Mean (SD): −2.66 (79.815) %
  SHAQ Visual Analog Scale-Breathing Problems, Percent Change from Baseline, Median: 29.58%
  SHAQ Visual Analog Scale-Breathing Problems, Percent Change from Baseline, Min: −93.5%
  SHAQ Visual Analog Scale-Breathing Problems, Percent Change from Baseline, Q1: −93.55%
  SHAQ Visual Analog Scale-Breathing Problems, Percent Change from Baseline, Q3: 56.00%
  SHAQ Visual Analog Scale-Intestinal Problems, Change from Baseline, Max: 1.80
  SHAQ Visual Analog Scale-Intestinal Problems, Change from Baseline, Mean (SD): −0.125 (1.6800)
  SHAQ Visual Analog Scale-Intestinal Problems, Change from Baseline, Median: 0.000
  SHAQ Visual Analog Scale-Intestinal Problems, Change from Baseline, Min: −2.30
  SHAQ Visual Analog Scale-Intestinal Problems, Change from Baseline, Q1: −1.150
  SHAQ Visual Analog Scale-Intestinal Problems, Change from Baseline, Q3: 0.900
  SHAQ Visual Analog Scale-Intestinal Problems, In Clinic Visit (Day 12), Max: 9.20
  SHAQ Visual Analog Scale-Intestinal Problems, In Clinic Visit (Day 12), Mean (SD): 3.025 (4.3162)
  SHAQ Visual Analog Scale-Intestinal Problems, In Clinic Visit (Day 12), Median: 1.450
  SHAQ Visual Analog Scale-Intestinal Problems, In Clinic Visit (Day 12), Min: 0.00
  SHAQ Visual Analog Scale-Intestinal Problems, In Clinic Visit (Day 12), Q1: 0.050
  SHAQ Visual Analog Scale-Intestinal Problems, In Clinic Visit (Day 12), Q3: 6.000
  SHAQ Visual Analog Scale-Intestinal Problems, Percent Change from Baseline, Max: 24.3%
  SHAQ Visual Analog Scale-Intestinal Problems, Percent Change from Baseline, Mean (SD): −6.92 (35.225) %
  SHAQ Visual Analog Scale-Intestinal Problems, Percent Change from Baseline, Median: 0.00%
  SHAQ Visual Analog Scale-Intestinal Problems, Percent Change from Baseline, Min: −45.1%
  SHAQ Visual Analog Scale-Intestinal Problems, Percent Change from Baseline, Q1: −45.10%
  SHAQ Visual Analog Scale-Intestinal Problems, Percent Change from Baseline, Q3: 24.32%
  SHAQ Visual Analog Scale-Pain, Change from Baseline, Max: 1.50
  SHAQ Visual Analog Scale-Pain, Change from Baseline, Mean (SD): 1.000 (0.4359)
  SHAQ Visual Analog Scale-Pain, Change from Baseline, Median: 0.800
  SHAQ Visual Analog Scale-Pain, Change from Baseline, Min: 0.70
  SHAQ Visual Analog Scale-Pain, Change from Baseline, Q1: 0.700
  SHAQ Visual Analog Scale-Pain, Change from Baseline, Q3: 1.500
  SHAQ Visual Analog Scale-Pain, In Clinic Visit (Day 12), Max: 9.20
  SHAQ Visual Analog Scale-Pain, In Clinic Visit (Day 12), Mean (SD): 5.300 (4.1577)
  SHAQ Visual Analog Scale-Pain, In Clinic Visit (Day 12), Median: 5.850
  SHAQ Visual Analog Scale-Pain, In Clinic Visit (Day 12), Min: 0.30
  SHAQ Visual Analog Scale-Pain, In Clinic Visit (Day 12), Q1: 1.900
  SHAQ Visual Analog Scale-Pain, In Clinic Visit (Day 12), Q3: 8.700
  SHAQ Visual Analog Scale-Pain, Percent Change from Baseline, Max: 75.0%
  SHAQ Visual Analog Scale-Pain, Percent Change from Baseline, Mean (SD): 31.35 (37.825) %
  SHAQ Visual Analog Scale-Pain, Percent Change from Baseline, Median: 10.81%
  SHAQ Visual Analog Scale-Pain, Percent Change from Baseline, Min: 8.2%
  SHAQ Visual Analog Scale-Pain, Percent Change from Baseline, Q1: 8.24%
  SHAQ Visual Analog Scale-Pain, Percent Change from Baseline, Q3: 75.00%
  SHAQ Visual Analog Scale-Raynaud's, Change from Baseline, Max: −0.10
  SHAQ Visual Analog Scale-Raynaud's, Change from Baseline, Mean (SD): −0.825 (0.9674)
  SHAQ Visual Analog Scale-Raynaud's, Change from Baseline, Median: −0.500
  SHAQ Visual Analog Scale-Raynaud's, Change from Baseline, Min: −2.20
  SHAQ Visual Analog Scale-Raynaud's, Change from Baseline, Q1: −1.500
  SHAQ Visual Analog Scale-Raynaud's, Change from Baseline, Q3: −0.150
  SHAQ Visual Analog Scale-Raynaud's, In Clinic Visit (Day 12), Max: 9.20
  SHAQ Visual Analog Scale-Raynaud's, In Clinic Visit (Day 12), Mean (SD): 4.950 (3.7749)
  SHAQ Visual Analog Scale-Raynaud's, In Clinic Visit (Day 12), Median: 5.200
  SHAQ Visual Analog Scale-Raynaud's, In Clinic Visit (Day 12), Min: 0.20
  SHAQ Visual Analog Scale-Raynaud's, In Clinic Visit (Day 12), Q1: 2.200
  SHAQ Visual Analog Scale-Raynaud's, In Clinic Visit (Day 12), Q3: 7.700
  SHAQ Visual Analog Scale-Raynaud's, Percent Change from Baseline, Max: −3.1%
  SHAQ Visual Analog Scale-Raynaud's, Percent Change from Baseline, Mean (SD): −19.71 (16.460) %
  SHAQ Visual Analog Scale-Raynaud's, Percent Change from Baseline, Median: −20.67%
  SHAQ Visual Analog Scale-Raynaud's, Percent Change from Baseline, Min: −34.4%
  SHAQ Visual Analog Scale-Raynaud's, Percent Change from Baseline, Q1: −33.85%
  SHAQ Visual Analog Scale-Raynaud's, Percent Change from Baseline, Q3: −5.56%
  SHAQ alternative disability index, Change from Baseline, Max: 0.00
  SHAQ alternative disability index, Change from Baseline, Mean (SD): −0.094 (0.0625)
  SHAQ alternative disability index, Change from Baseline, Median: −0.125
  SHAQ alternative disability index, Change from Baseline, Min: −0.13
  SHAQ alternative disability index, Change from Baseline, Q1: −0.125
  SHAQ alternative disability index, Change from Baseline, Q3: −0.063
  SHAQ alternative disability index, In Clinic Visit (Day 12), Max: 1.00
  SHAQ alternative disability index, In Clinic Visit (Day 12), Mean (SD): 0.375 (0.4787)
  SHAQ alternative disability index, In Clinic Visit (Day 12), Median: 0.250
  SHAQ alternative disability index, In Clinic Visit (Day 12), Min: 0.00
  SHAQ alternative disability index, In Clinic Visit (Day 12), Q1: 0.000
  SHAQ alternative disability index, In Clinic Visit (Day 12), Q3: 0.750
  SHAQ alternative disability index, Percent Change from Baseline, Max: −11.1%
  SHAQ alternative disability index, Percent Change from Baseline, Mean (SD): −43.70 (48.956) %
  SHAQ alternative disability index, Percent Change from Baseline, Median: −20.00%
  SHAQ alternative disability index, Percent Change from Baseline, Min: −100.0%
  SHAQ alternative disability index, Percent Change from Baseline, Q1: −100.00%
  SHAQ alternative disability index, Percent Change from Baseline, Q3: −11.11%
